Laboratory results reported in patent publication US8871933B2, “Purified pyrroloquinolinyl-pyrrolidine-2,5-dione compositions and methods for preparing and using same” (ArQule, Inc., priority 2009, dated 2014).

Experiments:
[1] = test system: human gastric cancer MKN45; test: Human gastric cancer xenograft; assay type: in vivo; conditions: monotherapy
Procedure: (§1) The efficacy of (−)-trans-3-(5,6-dihydro-4H-pyrrolo[3,2,1-ij]quinolin-1-yl)-4-(1H-indol-3-yl)pyrrolidine-2,5-dione was also tested in xenograft models with several other cancer cell lines: human pancreatic cancer MIA PaCa2 (FIG. 9, Panel B), human prostate cancer PC3 (FIG. 9, Panel C) and human gastric cancer MKN45 (FIG. 9, Panel D). The cells were treated with (−)-trans-3-(5,6-dihydro-4H-pyrrolo[3,2,1-ij]quinolin-1-yl)-4-(1H-indol-3-yl)pyrrolidine-2,5-dione as a monotherapy at indicated concentrations.

Flt4 = Flt4 (Homo sapiens, UniProt P35916); test: Kinase panel inhibition, Flt4; assay type: biochemical
Chain of Flt4 (P35916 25-1363): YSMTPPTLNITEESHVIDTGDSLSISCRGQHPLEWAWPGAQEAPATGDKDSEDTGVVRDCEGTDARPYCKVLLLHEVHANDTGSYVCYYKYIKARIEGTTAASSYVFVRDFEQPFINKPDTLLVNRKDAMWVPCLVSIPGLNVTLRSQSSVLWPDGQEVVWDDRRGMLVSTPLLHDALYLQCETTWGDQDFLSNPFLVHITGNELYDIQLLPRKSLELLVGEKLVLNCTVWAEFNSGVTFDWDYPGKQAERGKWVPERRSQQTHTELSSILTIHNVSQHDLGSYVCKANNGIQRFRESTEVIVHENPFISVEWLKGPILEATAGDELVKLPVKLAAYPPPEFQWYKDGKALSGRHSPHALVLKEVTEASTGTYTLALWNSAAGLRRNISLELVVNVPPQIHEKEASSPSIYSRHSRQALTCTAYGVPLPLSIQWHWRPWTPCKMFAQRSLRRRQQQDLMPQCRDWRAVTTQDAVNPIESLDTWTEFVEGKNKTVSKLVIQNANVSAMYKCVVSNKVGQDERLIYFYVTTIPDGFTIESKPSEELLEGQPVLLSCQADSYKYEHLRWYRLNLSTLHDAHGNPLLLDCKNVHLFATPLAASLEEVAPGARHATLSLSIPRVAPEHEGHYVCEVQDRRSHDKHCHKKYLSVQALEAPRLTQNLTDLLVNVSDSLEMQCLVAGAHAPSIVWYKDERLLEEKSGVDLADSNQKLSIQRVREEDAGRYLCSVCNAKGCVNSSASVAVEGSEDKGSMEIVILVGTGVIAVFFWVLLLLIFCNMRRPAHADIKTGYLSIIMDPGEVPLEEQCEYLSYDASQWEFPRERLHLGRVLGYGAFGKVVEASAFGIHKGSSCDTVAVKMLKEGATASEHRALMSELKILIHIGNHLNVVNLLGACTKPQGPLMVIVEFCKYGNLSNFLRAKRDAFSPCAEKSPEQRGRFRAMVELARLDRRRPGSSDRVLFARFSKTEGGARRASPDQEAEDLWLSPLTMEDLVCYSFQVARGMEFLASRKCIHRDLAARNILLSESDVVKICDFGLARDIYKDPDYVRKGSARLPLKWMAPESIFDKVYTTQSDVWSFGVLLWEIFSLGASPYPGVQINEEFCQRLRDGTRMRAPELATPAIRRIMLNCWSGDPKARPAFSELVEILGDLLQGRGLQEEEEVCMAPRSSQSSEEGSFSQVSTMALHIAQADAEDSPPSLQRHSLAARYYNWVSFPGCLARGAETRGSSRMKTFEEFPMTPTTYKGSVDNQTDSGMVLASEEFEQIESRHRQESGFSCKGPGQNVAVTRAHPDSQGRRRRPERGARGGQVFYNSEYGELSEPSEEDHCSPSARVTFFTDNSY
Procedure: (§2) (−)-trans-3-(5,6-dihydro-4H-pyrrolo[3,2,1-ij]quinolin-1-yl)-4-(1H-indol-3-yl)pyrrolidine-2,5-dione was assessed for its activity to inhibit a large panel (n=230) of human kinases.

[2] = test system: clear cell sarcoma and MiT-associated tumors; test: Clinical study in patients with clear cell sarcoma and MiT-associated tumors; assay type: in vivo, human
Excerpt: The present example describes the inhibition of c-Met Receptor Tyrosine Kinase in Clear Cell Sarcoma and MiT (Microphthalmia Transcription Factor)-Associated Tumors. […] The studies described in the present example used (−)-trans-3-(5,6-dihydro-4H-pyrrolo[3,2,1-ij]quinolin-1-yl)-4-(1H-indol-3-yl)pyrrolidine-2,5,-dione, a small molecule inhibitor of the c-Met receptor tyrosine kinase.
(−)-trans-3-(5,6-dihydro-4H-pyrrolo[3,2,1-ij]quinolin-1-yl)-4-(1H-indol-3-yl)pyrrolidine-2,5,-dione was administered to a patient with clear cell sarcoma. […]
(−)-trans-3-(5,6-dihydro-4H-pyrrolo[3,2,1-ij]quinolin-1-yl)-4-(1H-indol-3-yl)pyrrolidine-2,5,-dione is administered to patients with MiT (Microphthalmia Transcription Factor)-associated tumors. MiT tumors, which can include clear cell sarcoma (CCS), alveolar soft part sarcoma (ASPS) and translocation-associated renal cell carcinoma (RCC), are linked biologically through a common chromosomal abnormality that is responsible for the overexpression of c-Met resulting in the development of these tumors. Tumors with this abnormality are resistant to current therapies and, in the absence of successful surgical resection, are invariably fatal.

PAK3 = PAK3 (Homo sapiens, UniProt O75914); test: Kinase panel inhibition, PAK3; assay type: biochemical
Chain of PAK3 (O75914 whole entry): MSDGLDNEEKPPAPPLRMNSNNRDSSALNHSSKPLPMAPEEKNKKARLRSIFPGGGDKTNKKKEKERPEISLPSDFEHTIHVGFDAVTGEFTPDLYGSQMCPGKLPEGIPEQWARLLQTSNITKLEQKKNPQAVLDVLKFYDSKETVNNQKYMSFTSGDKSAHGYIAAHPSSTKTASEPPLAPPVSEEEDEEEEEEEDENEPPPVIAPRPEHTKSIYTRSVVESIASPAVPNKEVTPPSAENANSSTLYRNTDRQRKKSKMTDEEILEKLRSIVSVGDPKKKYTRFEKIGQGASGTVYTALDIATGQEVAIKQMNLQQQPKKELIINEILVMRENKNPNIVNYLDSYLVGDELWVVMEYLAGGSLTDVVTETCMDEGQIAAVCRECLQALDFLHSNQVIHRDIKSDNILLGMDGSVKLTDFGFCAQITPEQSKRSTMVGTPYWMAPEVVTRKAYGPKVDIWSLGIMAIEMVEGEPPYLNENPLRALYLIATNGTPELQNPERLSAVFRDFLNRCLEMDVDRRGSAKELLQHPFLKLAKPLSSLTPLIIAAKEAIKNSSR
Procedure: as §2

SK-MEL-28 = test: Cytotoxicity MTS assay; assay type: cell-based, human; conditions: 0.03 to 30 μM; no immunodetectable c-Met or phospho-c-Met
Procedure: (§3) Various cancer cell lines were treated with (−)-trans-3-(5,6-dihydro-4H-pyrrolo[3,2,1-ij]quinolin-1-yl)-4-(1H-indol-3-yl)pyrrolidine-2,5-dione at indicated concentrations ranging from 0.03 to 30 μM. The sensitivity of these cells to (−)-trans-3-(5,6-dihydro-4H-pyrrolo[3,2,1-ij]quinolin-1-yl)-4-(1H-indol-3-yl)pyrrolidine-2,5-dione was measured by a standard cytoxicity MTS assay (FIG. 10). Human cancer cell lines expressing c-Met and/or phospho-c-Met were sensitive to (−)-trans-3-(5,6-dihydro-4H-pyrrolo[3,2,1-ij]quinolin-1-yl)-4-(1H-indol-3-yl)pyrrolidine-2,5-dione.

MCF-7 = test: Cytotoxicity MTS assay; assay type: cell-based, human; conditions: 0.03 to 30 μM; no immunodetectable c-Met or phospho-c-Met
Procedure: as §3

NCI-H661 = test: Cytotoxicity MTS assay; assay type: cell-based, human; conditions: 0.03 to 30 μM; no immunodetectable c-Met or phospho-c-Met
Procedure: as §3

[3] = test system: Human cancer cell lines expressing c-Met and/or phospho-c-Met; test: Cytotoxicity MTS assay; assay type: cell-based; conditions: 0.03 to 30 μM
Procedure: as §3

Pim-1 = Pim-1 (Homo sapiens, UniProt P11309); test: Kinase panel inhibition, Pim-1; assay type: biochemical
Chain of Pim-1 (P11309 whole entry): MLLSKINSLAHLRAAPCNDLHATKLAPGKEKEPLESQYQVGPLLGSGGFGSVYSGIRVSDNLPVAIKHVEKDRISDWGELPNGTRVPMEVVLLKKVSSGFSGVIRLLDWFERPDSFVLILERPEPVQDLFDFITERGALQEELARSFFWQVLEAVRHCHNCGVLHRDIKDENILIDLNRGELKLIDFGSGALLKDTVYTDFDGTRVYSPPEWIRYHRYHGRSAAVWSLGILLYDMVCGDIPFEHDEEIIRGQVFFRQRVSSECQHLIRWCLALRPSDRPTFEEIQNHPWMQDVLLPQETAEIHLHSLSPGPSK
Procedure: as §2

CAMKIIδ = CAMKIIδ (Homo sapiens, UniProt Q13557); test: Kinase panel inhibition, CAMKIIδ; assay type: biochemical
Procedure: as §2

MDA-MB-231 cells = test: Colony formation / surviving fraction assay; assay type: cell-based; conditions: Homo sapiens, two days incubation, colonies counted two weeks later, read-out: IC50 (surviving fraction equaled 50)
Procedure: MDA-MB-231 cells (ATCC #HTB-26), grown in DMEM plus 15% heat inactivated fetal bovine serum plus 10 mM HEPES pH 7.5, were plated in 60 mm^2 plates (2×10^5 cells per plate). After two days candidate compounds in DMSO at various concentrations were diluted in media and added to individual plates such that the final DMSO concentration in the cell culture media was 0.1%. After two days incubation the culture was trypsinized, cells were washed with media, counted using a hemocytometer and 500 cells, including cell bodies, were plated in 100 mm^2 plates in media. Two weeks later the media was removed and the cell colonies were fixed with methanol for 10 minutes, stained with 1% crystal violet for 10 minutes, washed with water and air dried. Cell colonies were visually counted when there were greater then 50 cells present per colony. Plating efficiency was defined as the average number of colonies formed divided by 500. The surviving fraction was defined as the plating efficiency of a candidate compound divided by the plating efficiency of DMSO multiplied by 100. For candidate compound titrations, the IC50 value was determined by fitting the equation y=Ae^Bx to the data points and extrapolating the concentration where surviving fraction equaled 50. […]

[4] = test system: human pancreatic cancer MIA PaCa2; test: Human pancreatic cancer xenograft; assay type: in vivo; conditions: monotherapy
Procedure: as §1

[5] = test system: human prostate cancer PC3; test: Human prostate cancer xenograft; assay type: in vivo; conditions: monotherapy
Procedure: as §1

tumors = test: Clinical studies (tolerability and tumor responses); assay type: in vivo, human
Excerpt: (−)-trans-3-(5,6-dihydro-4H-pyrrolo[3,2,1-ij]quinolin-1-yl)-4-(1H-indol-3-yl)pyrrolidine-2,5,-dione is a selective inhibitor of c-Met, a receptor tyrosine kinase. When abnormally activated, c-Met plays multiple roles in aspects of human cancer, including cancer cell growth, survival, angiogenesis, invasion and metastasis.

- IC50 (Flt4): ~16 µM
- IC50 (PAK3): ~6.6 µM
- IC50 (Pim-1): 10 µM
- inhibition at 10 µM (Pim-1; 10 μM): 33%
- IC50 (CAMKIIδ): ~10 µM
SMILES: O=C1NC(=O)[C@@H](c2cn3c4c(cccc24)CCC3)[C@@H]1c1c[nH]c2ccccc12 (single isomer, unassigned) [(−)-trans-3-(5,6-dihydro-4H-pyrrolo[3,2,1-ij]quinolin-1-yl)-4-(1H-indol-3-yl)pyrrolidine-2,5-dione]
- tumor growth [1]: significantly inhibited tumor growth
- patients with stable disease ([2]; 120 mg b.i.d., 23 patients enrolled, fourteen evaluable for efficacy): ten of the evaluable patients have demonstrated stable disease
- response as defined by RECIST ([2]; a patient with clear cell sarcoma): partial response
- sensitivity (cytotoxicity MTS assay) (SK-MEL-28): little sensitivity
- sensitivity (cytotoxicity MTS assay) (MCF-7): little sensitivity
- sensitivity (cytotoxicity MTS assay) (NCI-H661): little sensitivity
- sensitivity (cytotoxicity MTS assay) [3]: sensitive
- IC50 (MDA-MB-231 cells): 0.62 µM
- tumor growth [4]: significantly inhibited tumor growth
- tumor growth [5]: significantly inhibited tumor growth
- tumor responses in clinical studies (tumors; broad ranges of tumors and doses): tumor responses and prolonged stable disease
- tolerability in clinical studies (tumors; human, in vivo): well tolerated
